Data set [1] can be described thus: Cytostatic activity against human WI38 cells after 72 hrs by MTT assay. The note with it: WI-38, 72 h. The format is cell-based. In general terms: Tetrazolium dyes change colour on reduction, which living cells bring about.
Data set [2] deals with Human betaherpesvirus 5. The data set can be described thus: Antiviral activity against HCMV AD169 infected in HEL cells assessed as reduction of virus-induced cytopathogenicity after 3 days. As to conditions: Human betaherpesvirus 5, AD169, HEL, 72 h. It counts as functional, organism-based. (Protection from cytopathic effect is a common read-out in antiviral testing.)
Data set [3] deals with Human betaherpesvirus 5. Put plainly: Antiviral activity against HCMV Davis infected in HEL cells assessed as reduction of virus-induced cytopathogenicity after 3 days. It counts as functional, organism-based. The note with it: Human betaherpesvirus 5, Davis, 72 h.
Data set [4] in a line: Cytotoxicity against HEL cells assessed as change in cell morphology. It counts as cell-based. The note with it: human.
A short description of data set [5]: Cytotoxicity against HEL cells assessed as reduction in cell growth. The note with it: human. The format is cell-based.
The next data set deals with Human alphaherpesvirus 1. The data set can be described thus: Antiviral activity against HSV1 infected in HEL cells assessed as reduction of virus-induced cytopathogenicity. The format is functional, organism-based.
The test system of a further data set is Human alphaherpesvirus 2. Put plainly: Antiviral activity against HSV2 infected in HEL cells assessed as reduction of virus-induced cytopathogenicity. The format is functional, organism-based.
Data set [6] deals with Vesicular stomatitis virus. Put plainly: Antiviral activity against vesicular stomatitis virus infected in HEL cells assessed as reduction of virus-induced cytopathogenicity. The format is functional, organism-based.
In data set [7] the test system is Mammalian orthoreovirus 1. Put plainly: Antiviral activity against Reovirus 1 infected in african green monkey Vero cells assessed as reduction of virus-induced cytopathogenicity. It counts as functional, organism-based.
A further data set concerns Human respirovirus 3. The data set can be described thus: Antiviral activity against parainfluenza virus 3 infected in african green monkey Vero cells assessed as reduction of virus-induced cytopathogenicity. The format is functional, organism-based.
The next data set concerns Sindbis virus. Put plainly: Antiviral activity against Sindbis virus infected in african green monkey Vero cells assessed as reduction of virus-induced cytopathogenicity. It counts as functional, organism-based.
Data set [8] concerns Coxsackievirus B4. Put plainly: Antiviral activity against Coxsackievirus B4 infected in african green monkey Vero cells assessed as reduction of virus-induced cytopathogenicity. It counts as functional, organism-based.
The next data set has as its system Punta Toro virus. The data set can be described thus: Antiviral activity against Punta Toro virus infected in african green monkey Vero cells assessed as reduction of virus-induced cytopathogenicity. It counts as functional, organism-based.
The test system of data set [9] is Vesicular stomatitis virus. Put plainly: Antiviral activity against vesicular stomatitis virus infected in HeLa cells assessed as reduction of virus-induced cytopathogenicity. The format is functional, organism-based.
Data set [10] deals with Coxsackievirus B4. The data set can be described thus: Antiviral activity against Coxsackievirus B4 infected in HeLa cells assessed as reduction of virus-induced cytopathogenicity. It counts as functional, organism-based.
Data set [11] concerns Respiratory syncytial virus. The data set can be described thus: Antiviral activity against respiratory syncytial virus infected in HeLa cells assessed as reduction of virus-induced cytopathogenicity. The format is functional, organism-based.
For another data set, the system named is L1210. The data set can be described thus: Cytostatic activity against mouse L1210 cells after 72 hrs by MTT assay. The format is functional, cell-based. The note with it: L1210, 72 h.
Another data set concerns CCRF-CEM. Put plainly: Cytostatic activity against human CEM cells after 72 hrs by MTT assay. It counts as functional, cell-based.
Data set [12] is described as follows: Cytostatic activity against human Molt4/C8 cells after 72 hrs by MTT assay. It counts as functional, cell-based. The note with it: MOLT-4, 72 h.
A further data set deals with HeLa. The data set can be described thus: Cytostatic activity against human HeLa cells after 72 hrs by MTT assay. It counts as functional, cell-based.
Another data set deals with MIA PaCa-2. The data set can be described thus: Cytostatic activity against human MiaPaCa2 cells after 72 hrs by MTT assay. The format is functional, cell-based. The note with it: MIA PaCa-2, 72 h.
Another data set concerns SW-620. Put plainly: Cytostatic activity against human SW620 cells after 72 hrs by MTT assay. It counts as functional, cell-based. As to conditions: SW-620, 72 h.
The subject of a further data set is MCF7. Put plainly: Cytostatic activity against human MCF7 cells after 72 hrs by MTT assay. The format is functional, cell-based. As to conditions: MCF7, 72 h.
A further data set relates to NCI-H460. Put plainly: Cytostatic activity against human H460 cells after 72 hrs by MTT assay. The format is functional, cell-based. The note with it: NCI-H460, 72 h.

Activity calls are given as the source filed them. The calls are words filed in the database; no cut-off is given here.

Broadly, the IC50 is the concentration at which inhibition is half-maximal. By EC50 is commonly meant the midpoint of the concentration-response curve. Usually CC50 stands for the concentration giving 50% cytotoxicity.

`CCN(CC)C(=O)NCCCC(C)Nc1cc(OC)cc2cccnc12` (stereo unspecified): the IC50 in data set [1] was more than 100 µM; in the data set with L1210, 207 µM; in the data set on CCRF-CEM it was 142 µM; in data set [12], 155 µM; in the data set with HeLa, 58 µM; in the data set on MIA PaCa-2, more than 100 µM. The IC50 in the data set with SW-620 was more than 100 µM; in the data set on MCF7, more than 63 µM; in the data set on NCI-H460, more than 100 µM. Besides, the EC50 with Human betaherpesvirus 5 [2] came to 49 µM; in the data set with Human betaherpesvirus 5 [3] it was 26 µM. In addition, the MCC in data set [4] was more than 100 µM. The CC50 in data set [5] was more than 100 µM. Also, the result (in the data set on Human alphaherpesvirus 1; with Human alphaherpesvirus 2; in data set [6]; in data set [7]; in the data set with Human respirovirus 3; in the data set with Sindbis virus) was inactive. Further, the result (in the data set on Coxsackievirus B4 [8]; in the data set on Punta Toro virus; in [9]; with Coxsackievirus B4 [10]; in [11]) was inactive.

Turning to `COc1cc(NC(C)CCCNC(=O)NC2CCCCC2)c2ncccc2c1` (stereo unspecified), the IC50 in data set [1] was more than 100 µM; in the data set on L1210 it was 23 µM; in the data set on CCRF-CEM, 36 µM; in data set [12], 50 µM; with HeLa, more than 100 µM; in the data set on MIA PaCa-2 it was 38 µM. Besides, the IC50 in the data set with SW-620 stood at 49 µM; in the data set with MCF7 it was 41 µM; in the data set with NCI-H460, 77 µM. The EC50 in the data set on Human betaherpesvirus 5 [2] worked out at 53 µM; in the data set with Human betaherpesvirus 5 [3], 10.5 µM. Moreover, the MCC in data set [4] was determined as 100 µM. Besides, the CC50 in [5] stood at 94 µM. Also, the result (in the data set with Human alphaherpesvirus 1; with Human alphaherpesvirus 2; in data set [6]; in [7]; in the data set with Human respirovirus 3; in the data set on Sindbis virus) was inactive. For the same compound, the outcome (in the data set on Coxsackievirus B4 [8]; with Punta Toro virus; in data set [9]; with Coxsackievirus B4 [10]; in data set [11]) was inactive.

As to `COc1cc(NC(C)CCCNC(=O)n2nnc3ccccc32)c2ncccc2c1` (stereo unspecified) [PRIMAQUINE BENZOTRIAZOLIDE], the IC50 in data set [1] was more than 100 µM; with L1210 it was 125 µM; with CCRF-CEM it was more than 100 µM; in data set [12] it was 74 µM; in the data set on HeLa, 71 µM; in the data set with MIA PaCa-2 it was 84 µM. Further, the IC50 in the data set with SW-620, in the data set with MCF7 and in the data set with NCI-H460 was more than 100 µM in each case. Moreover, the concentration giving a half-maximal response (EC50) with Human betaherpesvirus 5 [2] is more than 100 µM; in the data set on Human betaherpesvirus 5 [3] it was more than 30 µM. The MCC in [4] was more than 100 µM. In [5], the CC50 was determined as 72 µM. The result (in the data set on Human alphaherpesvirus 1; in the data set with Human alphaherpesvirus 2; in data set [6]; in data set [7]; in the data set on Human respirovirus 3; in the data set with Sindbis virus) was inactive. In addition, the outcome (in the data set on Coxsackievirus B4 [8]; in the data set with Punta Toro virus; in data set [9]; in the data set with Coxsackievirus B4 [10]; in data set [11]) was inactive.

As for `COc1cc(NC(C)CCCNC(=O)NCc2ccccc2)c2ncccc2c1` (stereo unspecified), the IC50 was 35 µM in data set [1]; 22 µM with L1210; 18 µM in the data set on CCRF-CEM; 21 µM in [12]; 15 µM in the data set on HeLa; 21 µM in the data set with MIA PaCa-2. The IC50 with SW-620 came out at 9 µM; in the data set with MCF7 it was 25 µM; with NCI-H460, 30 µM. The concentration for a half-maximal effect (EC50) is more than 20 µM in the data set with Human betaherpesvirus 5 [2] and 7.6 µM in the data set on Human betaherpesvirus 5 [3]. Also, the MCC in data set [4] worked out at 100 µM. Further, the CC50 in data set [5] was determined as 66 µM. Besides, the outcome (in the data set on Human alphaherpesvirus 1; in the data set with Human alphaherpesvirus 2; in [6]; in data set [7]; in the data set with Human respirovirus 3; with Sindbis virus) was inactive. The outcome (with Coxsackievirus B4 [8]; in the data set with Punta Toro virus; in [9]; in the data set with Coxsackievirus B4 [10]; in data set [11]) was inactive.

The record behind these values is ChEMBL document CHEMBL1156695, “The novel primaquine derivatives of N-alkyl, cycloalkyl or aryl urea: synthesis, cytostatic and antiviral activity evaluations” (Eur J Med Chem, 2008).
